Measured values as given in patent US12116573B2, “Targeting ligands for therapeutic compounds” (Arrowhead Pharmaceuticals, Inc., priority 2016, dated 2024).

Assay: Solubility of targeting ligand phosphoramidite compounds in oligonucleotide synthesis solvent (Example 5)
Format: physicochemical
Conditions: for solubility relative to Structure 103d: solvents for oligonucleotide synthesis
Description: The compositions were solubilized in dichloromethane (DCM) and dried over sieves.

| SMILES | dissolution under standard conditions (standard concentrations and solvent conditions typical for oligonucleotide synthesis) | solubility relative to Structure 103d |
| --- | --- | --- |
| CC(=O)NC1C(OCCOCCNC(=O)CCC(NC(=O)CCC(NC(=O)CCOCCOCCOCCOCCOP(OCCC#N)C(C(C)C)C(C)C)C(=O)NCCOCCOC2OC(COC(C)=O)C(OC(C)=O)C(OC(C)=O)C2NC(C)=O)C(=O)NCCOCCOC2OC(COC(C)=O)C(OC(C)=O)C(OC(C)=O)C2NC(C)=O)OC(COC(C)=O)C(OC(C)=O)C1OC(C)=O (stereo not drawn) [Structure 103d, Tri-NAG-bis-Glu-NH-PEG4 phosphoramidite] | difficult to dissolve | – |
| CC(=O)NC1C(OCCOCCNC(=O)CCC(NC(=O)CCC(NC(=O)CCOCCOCCOCCOCCOCCOCCOP(OCCC#N)N(C(C)C)C(C)C)C(=O)NCCOCCOC2OC(COC(C)=O)C(OC(C)=O)C(OC(C)=O)C2NC(C)=O)C(=O)NCCOCCOC2OC(COC(C)=O)C(OC(C)=O)C(OC(C)=O)C2NC(C)=O)OC(COC(C)=O)C(OC(C)=O)C1OC(C)=O (stereo not drawn) [Structure 101d, Tri-NAG-bis-Glu-NH-PEG6 phosphoramidite] | – | greater solubility |
| CC(=O)NC1C(OCCOCCNC(=O)CCC(NC(=O)CCC(NC(=O)CCOCCOCCOCCOCCOCCOCCOCCOCCOP(OCCC#N)N(C(C)C)C(C)C)C(=O)NCCOCCOC2OC(COC(C)=O)C(OC(C)=O)C(OC(C)=O)C2NC(C)=O)C(=O)NCCOCCOC2OC(COC(C)=O)C(OC(C)=O)C(OC(C)=O)C2NC(C)=O)OC(COC(C)=O)C(OC(C)=O)C1OC(C)=O (stereo not drawn) [Structure 102d, Tri-NAG-bis-Glu-NH-PEG8 Phosphoramidite] | – | greater solubility |
